According to BindingDB's records for doi:10.1021/jm9602571 (Dupont Pharmaceuticals, 1996):

Biological target: T1, Dimer of Gag-Pol polyprotein [501-599] (Human immunodeficiency virus 1, UniProt P03367)
T1 construct: 501-599
Test: Protease Inhibition Assay
Conditions: pH 5.5; 37 °C

## Nc1cccc(CN2C(=O)N(Cc3cccc(N)c3)[C@H](Cc3ccccc3)[C@H](O)[C@@H](O)[C@H]2Cc2ccccc2)c1
  Ki: 0.34 nM

## O=C1N(CC2CCCC2)[C@H](Cc2ccccc2)[C@H](O)[C@@H](O)[C@@H](Cc2ccccc2)N1CC1CCCC1
  Ki: 4 nM
